The values below come from article PMC6017976, “Enzyme Kinetics and Molecular Docking Studies on Cytochrome 2B6, 2C19, 2E1, and 3A4 Activities by Sauchinone” (Molecules : A Journal of Synthetic Chemistry and Natural …, 2018).

Where two headings read alike, the source gives them in different places.

In one series the target is T1, CYP2A6 (Homo sapiens, UniProt P11509).
T1 sequence (P11509 1-494): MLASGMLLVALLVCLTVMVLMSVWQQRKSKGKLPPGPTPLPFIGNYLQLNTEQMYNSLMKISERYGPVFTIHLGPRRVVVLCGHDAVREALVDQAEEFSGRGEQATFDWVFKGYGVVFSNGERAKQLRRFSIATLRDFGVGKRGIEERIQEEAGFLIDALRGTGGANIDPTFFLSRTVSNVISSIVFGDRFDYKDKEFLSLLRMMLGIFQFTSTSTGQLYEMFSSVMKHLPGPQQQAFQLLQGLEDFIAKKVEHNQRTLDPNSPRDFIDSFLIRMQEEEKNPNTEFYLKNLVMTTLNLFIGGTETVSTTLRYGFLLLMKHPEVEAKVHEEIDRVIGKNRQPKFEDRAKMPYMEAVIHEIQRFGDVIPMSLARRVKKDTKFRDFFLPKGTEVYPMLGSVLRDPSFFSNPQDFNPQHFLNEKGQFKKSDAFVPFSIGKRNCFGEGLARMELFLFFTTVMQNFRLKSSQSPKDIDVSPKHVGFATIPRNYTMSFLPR
The experiment in a line: Reversible inhibition (RI) of CYP2A6 activity in HLMs (cocktail probe assay). The conditions noted are these: read-out: IC50 on CYP2A6 activity (RI); HLMs; reversible inhibition; 5 μM coumarin; 30 min incubation; inhibitor 0–300 μM.

For series [1] the following is noted: male, ICR, mouse, in vivo.
Procedure: (§1) For analysis of sibutramine, a mobile phase was made, consisting of 10 mM ammonium acetate adjusted to pH 4 with acetic acid: acetonitrile (94:6, v/v) and was eluted at 0.2 mL/min. […] Other parameters of mass spectrometers were the same as those used for analysis of metabolites of CYP substrates.
(§2) Male ICR mice (5 weeks old, weight of 20–25 g) were purchased from the Charles River Company Korea (Orient, Seoul, Korea). […] They were provided free access to food and water. These mice were allowed to acclimate to these conditions for three days prior to inclusion in the experiments.
(§3) Surgical procedures for mice were conducted under tiletamine HCl and zolazepam HCl anesthesia by intramuscular injection. The carotid artery (for blood sampling) cannulation was carried out using catheters (BASi, West Lafayette, IN, USA). Drug administration and blood sampling were performed at 5 h after surgery [55]. […] Other procedures were the same as those used for the sibutramine pharmacokinetic study.
(§4) AUC was calculated using the trapezoidal rule method. Standard methods [56] were used to calculate pharmacokinetic parameters using non-compartmental analysis (WinNonlin 2.1; Pharmasight Corp., Mountain View, CA, USA). Cmax and Tmax were read reversibly from extrapolated data.
A short description of another series: in vivo. To be noted: male, ICR, mouse.
The nature of series [2]: Drug interaction of sibutramine, clopidogrel, or chlorzoxazone with sauchinone in mice (plasma pharmacokinetics). To be noted: for CL/F / Tmax / half-life / AUC: male, ICR, mouse, in vivo; for AUC: plasma, 1 mg/kg sibutramine, 10 mg/kg clopidogrel or 10 mg/kg chlorzoxazone.
Procedure: as §1, §2, §3, §4
For the next series, the target named is T2, CYP2C19 (Homo sapiens, UniProt P33261).
T2 construct: pooled human liver microsomes from a mixed pool of 50 donors; tissue BD Gentest Co. 452156; host or cells: human liver microsomes, pool of 50 donors
T2 sequence (P33261 whole entry): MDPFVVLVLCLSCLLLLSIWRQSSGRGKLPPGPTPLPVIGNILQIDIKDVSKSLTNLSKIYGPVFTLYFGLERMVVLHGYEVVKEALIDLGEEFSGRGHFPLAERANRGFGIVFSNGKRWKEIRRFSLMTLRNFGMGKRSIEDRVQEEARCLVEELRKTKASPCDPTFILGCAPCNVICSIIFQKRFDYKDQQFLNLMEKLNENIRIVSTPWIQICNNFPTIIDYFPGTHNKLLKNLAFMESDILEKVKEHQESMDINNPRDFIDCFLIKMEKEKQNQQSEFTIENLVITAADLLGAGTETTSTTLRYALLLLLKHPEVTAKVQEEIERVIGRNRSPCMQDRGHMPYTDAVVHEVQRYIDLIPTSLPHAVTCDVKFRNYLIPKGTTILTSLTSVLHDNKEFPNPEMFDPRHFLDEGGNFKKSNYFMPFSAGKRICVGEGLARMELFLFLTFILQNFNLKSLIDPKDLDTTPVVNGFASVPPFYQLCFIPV
The series is described as follows: Reversible inhibition (RI) of CYP2C19 activity in HLMs (cocktail probe assay). Type of series: in vitro ADME. The conditions noted are these: S-mephenytoin hydroxylation, 100 μM S-mephenytoin, 30 min incubation.

[3] abbreviates: mice, drug with sauchinone versus drug alone, decrease.
Setting [4] is: mice, drug with sauchinone versus drug alone, increase.

Procedure for in vivo: as §1, §2, §3, §4

For `N[C@@H]1C[C@H]1c1ccccc1` (racemic) [tranylcypromine, reference compound], the IC50 at CYP2A6 is 1.99 µM.

Turning to `COC(=O)[C@H](c1ccccc1Cl)N1CCc2sccc2C1` [Clopidogrel, clopidogrel], in series [1], the “AUC greater with sauchinone than drug alone (by %)” value stood at 31.0%, the “CL/F slower with sauchinone than drug alone (by %)” value came out at 24.7%, the “Cmax higher with sauchinone than drug alone (by %)” value worked out at 17.3% and the “t1/2 smaller with sauchinone than drug alone (by %)” value was 19.1%. Moreover, in the series “in vivo”, the CL/F stood at 3.81 ± 0.514 mL/min/kg, the Tmax is 0.25 h and the half-life was 2.18 ± 0.112 h. Further, in “in vivo” (po), the CL/F amounted to 2.87 ± 0.225 mL/min/kg, the time of peak concentration (Tmax) is 0.25 h and the half-life worked out at 1.77 ± 0.427 h.

For the molecule `CC(C)CC(N(C)C)C1(c2ccc(Cl)cc2)CCC1` (stereo not drawn) [Sibutramine, sibutramine], in series [2], the CL/F amounted to 0.253 ± 0.0208 mL/min/kg, the Tmax was 0.25 h and the half-life came to 3.28 ± 0.598 h. In addition, in series [2] (po), the CL/F was determined as 0.205 ± 0.0186 mL/min/kg, the Tmax was 0.25 h and the half-life was determined as 2.75 ± 0.53 h. This molecule also had an AUC in series [2] (po, mice, with sauchinone (100 mg/kg oral, 30 min before)) of 82000 ng·h/mL. The same molecule showed an exposure (AUC) in series [2] (po, mice, without sauchinone (vehicle), oral administration per Table 3) of 66300 ng·h/mL. Moreover, in series [2] (setting [3]), the “CL/F slower with sauchinone than drug alone (by %)” value is 19.0% and the “t1/2 smaller with sauchinone than drug alone (by %)” value is 16.2%. Also, in series [2] (setting [4]), the “AUC greater with sauchinone than drug alone (by %)” value was found to be 23.6% and the “Cmax higher with sauchinone than drug alone (by %)” value is listed as 41.5%.

In the case of `COc1ccc2[nH]c([S+]([O-])Cc3ncc(C)c(OC)c3C)nc2c1` (stereo not drawn) [omeprazole, reference compound], it took 6.59 µM to reach half-maximal inhibition against CYP2C19 (IC50).

Broadly, the IC50 is the concentration that gives 50% inhibition. A word on the CL/F: it is clearance divided by bioavailability, as obtained after extravascular dosing. As usually defined, the Tmax is the time from dosing to the highest level. As usually defined, the half-life is the time in which the quantity being followed falls by half. The low end stands for fast loss, the high end for slow loss. One may read the AUC as the area under the concentration-time curve, a measure of exposure. The low end stands for less exposure, the high end for more exposure.
